Data as given in patent US10532066B2, “Surfactant lipids, compositions thereof, and uses thereof” (National Jewish Health, priority 2007, dated 2020).
Entries after “also recorded” stand apart in the source; their conditions may differ.

What was measured:
[1] = tested on: human alveolar macrophages; test: LPS-induced TNF-α production by primary human alveolar macrophages; type: cell-based; conditions: LPS 10 ng/ml, phospholipids 20 μg/ml, 6 h
Description: (§1) FIG. 8. POPG, DMPG and PI antagonize the effects of LPS on primary human alveolar macrophages. Human alveolar macrophages were isolated from healthy volunteer BALF and plated onto a 96-well plate. Two days after plating, 10 ng/ml of LPS and 20 μg/ml of phospholipids were added to monolayer cultures of human alveolar macrophages. 6 h after stimulation, media were collected and TNF-α production was determined by ELISA. LPS stimulation without phospholipid was set at 100%. […] The average TNF-α secretion after LPS stimulation was 30.7±15.1 ng/ml. Significance—**: p<0.01, when compared with LPS stimulation in the absence of POPG.
Human alveolar macrophages were isolated from BALF of healthy volunteers using protocols reviewed and approved by the National Jewish Medical Research Center IRB and the University of Colorado General Clinical Research Center. The lungs were lavaged with pyrogen-free saline, and alveolar macrophages were sedimented by centrifugation at 150×g×5 min. Isolated macrophages were plated at 5×10^4 cells/well in 96-well plates (Falcon) in RPMI 1640 medium containing 10% BGS. The cells were allowed to adhere for 48 h and then used for the experiments after washing with PBS to remove the unattached cells.
U937 cells were induced to differentiate by treatment with 10 nM phorbol myristate acetate (PMA) for 48 h. The cells (1.3×10^5/well) were placed in 96-well plates and further incubated in the absence of PMA for 24 h in RPMI 1640 medium containing 10% BGS. Rat alveolar macrophages (5×10^5/well) were incubated in 24-well plates for 2 h after isolation. The indicated concentration of phospholipids was added to the cultures 30 min before adding LPS. After LPS addition cultures were incubated for 6 h at 37° C. at an atmosphere of 95% air and 5% CO2. At the end of the incubation period the medium was collected and assayed for TNF-α concentrations using an ELISA kit.
as §1, with “Human” for “FIG. 8. POPG, DMPG and PI antagonize the effects of LPS on primary human alveolar macrophages. Human”, “phospholipids (POPG, DMPG and PI)” for “phospholipids”

[2] = tested on: primary rat alveolar macrophages; test: LPS-induced NO production by rat alveolar macrophages; type: cell-based; conditions: LPS 10 ng/ml, 24 h, liposomes; LPS without phospholipid = 100%
Description: FIG. 1. Anionic phospholipids inhibit inflammatory mediator production induced by LPS. Liposomes composed of sphingomyelin (SM), phosphatidylethanolamine (PE) dipalmitoyl-phosphatidylcholine ((DPPC), phosphatidylserine (PS), palmitoyl-oleoyl-phosphatidylglycerol (POPG) and phosphatidylinositol (PI) were formed by bath-sonication for 30 min at room temperature. LPS (10 ng/ml) and different concentrations of phospholipids were added to monolayer cultures of differentiated U937 cells (A), or primary rat alveolar macrophages (B). At 6 h after stimulation, media were collected and secreted TNF-α levels were determined in U937 cultures. NO production was determined 24 h after stimulating rat alveolar macrophages. LPS stimulation in the absence of phospholipid was set as 100%. […] The average TNF-α production upon LPS stimulation was (8.0±0.54 ng/ml). The average NO production upon LPS stimulation was 12.17±0.27 μM.
FIG. 2. The inhibitory effect of phosphatidylglycerols on LPS-induced inflammatory mediator production is molecular species specific. PG liposomes were formed by bath-sonication for 30 min at room temperature. LPS (10 ng/ml) and different concentrations of PG were added to monolayer cultures of differentiated U937 cells (A) or rat alveolar macrophages (B). Media TNF-α measurements were performed 6 h after stimulation. Media NO measurements were performed 24 h after stimulation. LPS stimulation without PG was set at 100%. The molecular species of PG shown on the graph are 8:0; dioctanoyl-phosphatidylglycerol, 12:0; dilauroyl-phosphatidylglycerol (DLPG), 14:0; dimyristoyl-phosphatidylglycerol (DMPG), 16:0; dipalmitoyl-phosphatidylglycerol (DPPG), 18:0; distearoyl-phosphatidylglycerol, 16:0/18:1; palmitoyl-oleoyl-phosphatidylglycerol (POPG). […] The average TNF-α production upon LPS stimulation was 11.3±0.7 ng/ml. The average NO production upon LPS stimulation was 10.1±0.6 μM.
Rat alveolar macrophages were isolated from bronchoalveolar lavage fluid (BALF) of Sprague-Dawley rats. The lungs were lavaged with pyrogen-free saline, and alveolar macrophages were sedimented by centrifugation at 150×g×5 min. Isolated macrophages were plated at 5×10^5 cells/well in 24-well plates (Falcon) in RPMI 1640 medium containing 10% BGS. The cells were allowed to adhere for 2 h and then used for the experiments after washing with phosphate-buffered-saline (PBS) to remove the unattached cells.
Nitric oxide (NO) accumulation in the supernatant was determined as previously reported (28). Briefly, rat alveolar macrophages were stimulated with LPS (10 ng/ml) or LPS plus phospholipids for 24 h. Culture supernatants (usually […]) were combined with an equal volume of Greiss reagent, and the samples were incubated at room temperature for 10 min before the absorbance was quantified at 550 nm. With the use of a standard curve, the nmol of NO produced were determined and normalized to total cell number in each sample.

[3] = tested on: BALB/c mice; test: Lung inflammation induced by intratracheally administered LPS; conditions: LPS 1 μg + phospholipids 30 μg sprayed into trachea, 18 h
Description: A mixture of LPS (1 μg) and phospholipids (30 μg) in 20 μl of PBS was sprayed into murine trachea using a MicroSprayer™ aerosolizer. At 18 h after stimulation, lungs were lavaged via the trachea. TNF-α production (A) was determined by ELISA. The number of leukocytes was counted and differential cell counts (B) were determined from at least 300 cells on cytocentrifuged preparations. Mouse KC (C) and MIP-2 (D) secretion were determined using Quantikine kits (R&D System). The data shown are the means±S.E. from six to eight mice.
Human and mouse TNF-α ELISA kits were purchased from BioSource (Camarillo, Calif.). Mouse KC and MIP-2 Quantikine kits were purchased from R&D System. Measurements of these cytokines were according to the manufacturers' protocols.
Female BALB/c mice from 6 to 8 weeks of age were obtained from Jackson Laboratories (Bar Harbor, Me.). Experiments were conducted under a protocol approved by the Institutional Animal Care and Use Committee of the National Jewish Medical and Research Center. Liposomes were formed using a Liposofast™ (Avestin; Ottawa, Canada), which makes unilamellar liposomes of 100 nm of diameter, and then mixed with an aqueous solution containing LPS. The mixture of LPS and phospholipids was sprayed into murine trachea using a MicroSprayer™ aerosolizer (PennCentury, Philadelphia, Pa.) under isoflurene anesthesia. […] After stimulation, lungs were lavaged via the trachea with 1 ml of Hank's balanced salt solution (Invitrogen Corporation, Carlsbad, Calif.). The volume of collected BALF was measured in each sample and the number of leukocytes was counted (Coulter Counter; Coulter Corporation, Hialeah, Fla.). Differential cell counts were determined from at least 300 cells on cytocentrifuged preparations (Cytospin; Shandon Ltd., Runcorn, Cheshire, UK). Slides were stained with modified Wright-Giemsa (Hema; Protocol, Swedesboro, N.J.) and the cell populations differentiated by standard hematologic procedures. Cytokine levels in the BALF or in the supernatants of cultured airway macrophages were measured using ELISA kits.

Row | Compound | LPS-induced TNF-α production [1] | LPS-induced TNF-α production ([1]; listed as dimyristoyl PG) | LPS-induced NO production [2] | KC secretion in BALF [3] | LPS-induced neutrophil infiltration [3] | MIP-2 secretion in BALF [3] | TNF-α secretion in the lung (BALF) [3]
1 | CCCCCCCCCCCCCC(=O)OCC(COP(=O)(O)OCC(O)CO)OC(=O)CCCCCCCCCCCCC (stereo not shown) [DMPG, dimyristoyl-phosphatidylglycerol] | antagonize | markedly attenuate | as potent as POPG | attenuated | modestly attenuated | attenuated | significantly attenuated
2 | CCCCCCCCCCCCCCCC(=O)OC[C@H](COP(=O)([O-])OCC[N+](C)(C)C)OC(=O)CCCCCCCCCCCCCCC [DPPC, dipalmitoyl-phosphatidylcholine, reference compound] | no significant effect |  | no significant effect |  | not |  | unaffected
3 | CCCCCCCCCCCCCCCC(=O)OCC(COP(=O)(O)OCC(O)CO)OC(=O)CCCCCCCCCCCCCCC (stereo not shown) [DPPG, dipalmitoyl-phosphatidylglycerol, reference compound] | no significant effect |  | failed to antagonize |  |  |  | 
4 | CCCCCCCC/C=C\CCCCCCCC(=O)O[C@H](COC(=O)CCCCCCCCCCCCCCC)COP(=O)(O)OCC(O)CO (stereo partly shown) [POPG, palmitoyl-oleoyl-phosphatidylglycerol] | markedly attenuate; also recorded: antagonize |  | significantly attenuated | especially POPG attenuated | modestly attenuated | especially POPG attenuated | significantly attenuated
5 | phosphatidylinositol [PI] | markedly attenuate; also recorded: antagonize |  | significantly attenuated | attenuated | modestly attenuated | attenuated | significantly attenuated
